{"source": "patent US20220071996A1", "about": "“ORAL FORMULATIONS OF BRANAPLAM” (NOVARTIS AG, priority 2018, published 2022)", "assay_type_in_all_cases": "physicochemical", "key": {"[1]": {"test": "measured log P of branaplam"}, "[2]": {"test": "pH-dependent stability and compatibility with preservatives"}, "[3]": {"test": "measured pKas of branaplam", "details": "acid"}, "[4]": {"test": "solubility of branaplam in selected excipients", "details": "pH 4, aqueous with cosolvent or surfactant or cyclodextrin, thermodynamic from solid", "method": "Solubility of branaplam was evaluated in excipients, other than cyclodextrin, such as Cremophor RH40, Tween 80, PG, PEG300, and glycerol. These excipients and concentrations were selected as they are suitable for paediatric formulations. None of the tested excipients was able to support development of a formulation comprising branaplam at a concentration high enough (i.e. about 2 mg/ml or higher) to keep the dose volume in a suitable range (Table 6).\nSolubility of branaplam was evaluated in excipients, other than cyclodextrin, such as Cremophor RH40, Tween 80, PG, PEG300, and glycerol. These excipients and concentrations were selected as they are suitable for paediatric formulations. None of the tested excipients was able to support development of a formulation comprising branaplam at a concentration high enough (i.e. about 2 mg/ml or higher) to keep the dose volume in a suitable range (Table 5a).\nSolubility of branaplam was measured as follows: stock solutions for the excipients at target concentrations were prepared using milli-Q water and adjusted using pH 4.0 buffer. […] Suspensions were stirred for 24 hours (using a magnetic stirrer) ensuring sufficient swirling and monitoring the temperature. The suspensions were filtered through 0.45 μm nominal pore size filter (e.g. using a PES syringe), and the concentration of branaplam in the filtrate was measured using HPLC (high performance liquid chromatography). The measurements were performed in duplicate and average of the values are reported."}}, "note": "Read-outs that look alike come from different tables or passages of the source.", "data": [{"compound": "CC1(C)CC(Oc2ccc(-c3ccc(-c4cn[nH]c4)cc3O)nn2)CC(C)(C)N1", "note": "[branaplam, 5-(1H-pyrazol-4-yl)-2-(6-((2,2,6,6-tetramethylpiperidin-4-yl)oxy)pyridazin-3-yl)phenol]", "values": [{"measurement": "logP", "setting": "[1]", "result": 2.6}, {"measurement": "pH-dependent stability", "setting": "[2]", "result": "poor stability under pH 4"}, {"measurement": "compatibility with potassium sorbate", "setting": "[2]; preservative potassium sorbate", "result": "incompatibility with potassium sorbate"}, {"measurement": "pKa", "setting": "[3]", "result": 11.5}, {"measurement": "solubility at 24 h", "setting": "[4]; 2 °C, in Cremophor RH 40 15.0% (w/v), pH 4.0 buffer, 2-8° C., read-out: Solubility (mg/mL) 2-8° C.", "result": 1.19, "unit": "mg/mL"}, {"measurement": "solubility at 24 h", "setting": "[4]; 25 °C, in Cremophor RH 40 15.0% (w/v), pH 4.0 buffer, RT, read-out: Solubility (mg/mL) RT", "result": 1.32, "unit": "mg/mL"}, {"measurement": "solubility at 24 h", "setting": "[4]; Cremophor RH 40 1.0% (w/v) aqueous solution in pH 4.0 buffer, 2 °C, in Cremophor RH 40 1.0% (w/v), pH 4.0 buffer, 2-8° C., read-out: Solubility (mg/mL) 2-8° C.", "result": 0.17, "unit": "mg/mL"}, {"measurement": "solubility at 24 h", "setting": "[4]; Cremophor RH 40 1.0% (w/v) aqueous solution in pH 4.0 buffer, 25 °C, in Cremophor RH 40 1.0% (w/v), pH 4.0 buffer, RT, read-out: Solubility (mg/mL) RT", "result": 0.28, "unit": "mg/mL"}, {"measurement": "solubility at 24 h", "setting": "[4]; Cremophor RH 40 3.5% (w/v) aqueous solution in pH 4.0 buffer, 2 °C, in Cremophor RH 40 3.5% (w/v), pH 4.0 buffer, 2-8° C., read-out: Solubility (mg/mL) 2-8° C.", "result": 0.44, "unit": "mg/mL"}, {"measurement": "solubility at 24 h", "setting": "[4]; Cremophor RH 40 3.5% (w/v) aqueous solution in pH 4.0 buffer, 25 °C, in Cremophor RH 40 3.5% (w/v), pH 4.0 buffer, RT, read-out: Solubility (mg/mL) RT", "result": 0.53, "unit": "mg/mL"}, {"measurement": "solubility at 24 h", "setting": "[4]; Cremophor RH 40 7.0% (w/v) aqueous solution in pH 4.0 buffer, 2 °C, in Cremophor RH 40 7.0% (w/v), pH 4.0 buffer, 2-8° C., read-out: Solubility (mg/mL) 2-8° C.", "result": 0.71, "unit": "mg/mL"}, {"measurement": "solubility at 24 h", "setting": "[4]; Cremophor RH 40 7.0% (w/v) aqueous solution in pH 4.0 buffer, 25 °C, in Cremophor RH 40 7.0% (w/v), pH 4.0 buffer, RT, read-out: Solubility (mg/mL) RT", "result": 0.84, "unit": "mg/mL"}, {"measurement": "solubility at 24 h", "setting": "[4]; aqueous excipient solution, 2 °C, in Glycerol 5.0% (w/w), 2-8° C., read-out: Solubility (mg/mL) 2-8° C.", "result": 0.2, "unit": "mg/mL"}, {"measurement": "solubility at 24 h", "setting": "[4]; aqueous excipient solution, 2 °C, in Glycerol 10.0% (w/w), 2-8° C., read-out: Solubility (mg/mL) 2-8° C.", "result": 0.19, "unit": "mg/mL"}, {"measurement": "solubility at 24 h", "setting": "[4]; aqueous excipient solution, 2 °C, in PEG 300 5.0% (w/w), 2-8° C., read-out: Solubility (mg/mL) 2-8° C.", "result": 0.27, "unit": "mg/mL"}, {"measurement": "solubility at 24 h", "setting": "[4]; aqueous excipient solution, 2 °C, in PEG 300 10.0% (w/w), 2-8° C., read-out: Solubility (mg/mL) 2-8° C.", "result": 0.34, "unit": "mg/mL"}, {"measurement": "solubility at 24 h", "setting": "[4]; aqueous excipient solution, 2 °C, in PEG 300 25.0% (w/w), 2-8° C., read-out: Solubility (mg/mL) 2-8° C.", "result": 0.87, "unit": "mg/mL"}, {"measurement": "solubility at 24 h", "setting": "[4]; aqueous excipient solution, 2 °C, in PEG 400 5.0% (w/w), 2-8° C., read-out: Solubility (mg/mL) 2-8° C.", "result": 0.21, "unit": "mg/mL"}, {"measurement": "solubility at 24 h", "setting": "[4]; aqueous excipient solution, 2 °C, in PEG 400 10.0% (w/w), 2-8° C., read-out: Solubility (mg/mL) 2-8° C.", "result": 0.45, "unit": "mg/mL"}, {"measurement": "solubility at 24 h", "setting": "[4]; aqueous excipient solution, 2 °C, in PEG 400 25.0% (w/w), 2-8° C., read-out: Solubility (mg/mL) 2-8° C.", "result": 0.93, "unit": "mg/mL"}, {"measurement": "solubility at 24 h", "setting": "[4]; aqueous excipient solution, 2 °C, in Propylene glycol 5.0% (w/w), 2-8° C., read-out: Solubility (mg/mL) 2-8° C.", "result": 0.16, "unit": "mg/mL"}, {"measurement": "solubility at 24 h", "setting": "[4]; aqueous excipient solution, 2 °C, in Propylene glycol 10.0% (w/w), 2-8° C., read-out: Solubility (mg/mL) 2-8° C.", "result": 0.18, "unit": "mg/mL"}, {"measurement": "solubility at 24 h", "setting": "[4]; aqueous excipient solution, 2 °C, in Propylene glycol 25.0% (w/w), 2-8° C., read-out: Solubility (mg/mL) 2-8° C.", "result": 0.42, "unit": "mg/mL"}, {"measurement": "solubility at 24 h", "setting": "[4]; aqueous excipient solution, 2 °C, in Tween 80 0.5% (w/w), 2-8° C., read-out: Solubility (mg/mL) 2-8° C.", "result": 0.16, "unit": "mg/mL"}, {"measurement": "solubility at 24 h", "setting": "[4]; aqueous excipient solution, 2 °C, in Tween 80 0.8% (w/w), 2-8° C., read-out: Solubility (mg/mL) 2-8° C.", "result": 0.22, "unit": "mg/mL"}, {"measurement": "solubility at 24 h", "setting": "[4]; aqueous excipient solution, 2 °C, in Tween 80 1.5% (w/w), 2-8° C., read-out: Solubility (mg/mL) 2-8° C.", "result": 0.29, "unit": "mg/mL"}, {"measurement": "solubility at 24 h", "setting": "[4]; aqueous excipient solution, 2 °C, in Tween 80 5.0% (w/w), 2-8° C., read-out: Solubility (mg/mL) 2-8° C.", "result": 0.73, "unit": "mg/mL"}, {"measurement": "solubility at 24 h", "setting": "[4]; aqueous excipient solution, 25 °C, in Glycerol 5.0% (w/w), RT, read-out: Solubility (mg/mL) RT", "result": 0.18, "unit": "mg/mL"}, {"measurement": "solubility at 24 h", "setting": "[4]; aqueous excipient solution, 25 °C, in Glycerol 10.0% (w/w), RT, read-out: Solubility (mg/mL) RT", "result": 0.22, "unit": "mg/mL"}, {"measurement": "solubility at 24 h", "setting": "[4]; aqueous excipient solution, 25 °C, in PEG 300 5.0% (w/w), RT, read-out: Solubility (mg/mL) RT", "result": 0.39, "unit": "mg/mL"}, {"measurement": "solubility at 24 h", "setting": "[4]; aqueous excipient solution, 25 °C, in PEG 300 10.0% (w/w), RT, read-out: Solubility (mg/mL) RT", "result": 0.64, "unit": "mg/mL"}, {"measurement": "solubility at 24 h", "setting": "[4]; aqueous excipient solution, 25 °C, in PEG 300 25.0% (w/w), RT, read-out: Solubility (mg/mL) RT", "result": 1.61, "unit": "mg/mL"}, {"measurement": "solubility at 24 h", "setting": "[4]; aqueous excipient solution, 25 °C, in PEG 400 5.0% (w/w), RT, read-out: Solubility (mg/mL) RT", "result": 0.39, "unit": "mg/mL"}, {"measurement": "solubility at 24 h", "setting": "[4]; aqueous excipient solution, 25 °C, in PEG 400 10.0% (w/w), RT, read-out: Solubility (mg/mL) RT", "result": 0.63, "unit": "mg/mL"}, {"measurement": "solubility at 24 h", "setting": "[4]; aqueous excipient solution, 25 °C, in PEG 400 25.0% (w/w), RT, read-out: Solubility (mg/mL) RT", "result": 1.47, "unit": "mg/mL"}, {"measurement": "solubility at 24 h", "setting": "[4]; aqueous excipient solution, 25 °C, in Propylene glycol 5.0% (w/w), RT, read-out: Solubility (mg/mL) RT", "result": 0.27, "unit": "mg/mL"}, {"measurement": "solubility at 24 h", "setting": "[4]; aqueous excipient solution, 25 °C, in Propylene glycol 10.0% (w/w), RT, read-out: Solubility (mg/mL) RT", "result": 0.37, "unit": "mg/mL"}, {"measurement": "solubility at 24 h", "setting": "[4]; aqueous excipient solution, 25 °C, in Propylene glycol 25.0% (w/w), RT, read-out: Solubility (mg/mL) RT", "result": 0.94, "unit": "mg/mL"}, {"measurement": "solubility at 24 h", "setting": "[4]; aqueous excipient solution, 25 °C, in Tween 80 0.5% (w/w), RT, read-out: Solubility (mg/mL) RT", "result": 0.25, "unit": "mg/mL"}, {"measurement": "solubility at 24 h", "setting": "[4]; aqueous excipient solution, 25 °C, in Tween 80 0.8% (w/w), RT, read-out: Solubility (mg/mL) RT", "result": 0.28, "unit": "mg/mL"}, {"measurement": "solubility at 24 h", "setting": "[4]; aqueous excipient solution, 25 °C, in Tween 80 1.5% (w/w), RT, read-out: Solubility (mg/mL) RT", "result": 0.41, "unit": "mg/mL"}, {"measurement": "solubility at 24 h", "setting": "[4]; aqueous excipient solution, 25 °C, in Tween 80 5.0% (w/w), RT, read-out: Solubility (mg/mL) RT", "result": 0.89, "unit": "mg/mL"}]}]}
